According to paper PMC7495385, “Role of Escape Mutant-Specific T Cells in Suppression of HIV-1 Replication and Coevolution with HIV-1” (Journal of Virology, 2020):

Assays:
Assay type in all cases: cell-based, human
[1] = tested on: HLA-B*52:01-restricted CD8+ T cells (PBMCs of HIV-1 subtype B-infected individuals); test: IFN-γ ELISPOT assay, T cell responses to peptides in HLA-B*52:01+ individuals; settings: positive >200 spots/10^6 CD8+ T cells
Procedure: Ex vivo gamma interferon (IFN-γ) ELISPOT assays were performed as previously described ([6], [49]). The number of spots for a T cell response to each peptide was finally calculated by subtracting the number of spots in wells without peptides. The mean + 3 standard deviations (SD) of the spot number of samples from 13 HIV-1 naive individuals for the peptides was 162 spots/10^6 CD8^+ T cells ([6], [49]). Therefore, we defined >200 spots/10^6 CD8^+ T cells as positive responses.

[2] = tested on: RI8-6T-specific T cell lines (KI-906); test: ICS assay, 721.221-B*52:01 cells prepulsed with peptide, T cell lines from KI-906; settings: two RI8-6T-specific T cell lines from KI-906 (Nov 2010, Aug 2013); 2 h, then brefeldin A 4 h at 37°C; IFN-γ+ of CD8+ T cells; means with SD (n = 3)
Description: (§1) PBMCs were stained with PE- or APC-conjugated tetramers, FITC-conjugated anti-CD3 (Dako, Glostrup, Denmark), Pacific blue-conjugated anti-CD8 MAb (BD Biosciences), and 7-AAD (BD Pharmingen), after which CD3^+ CD8^+ 7AAD^− tetramer^+ T cells were sorted in U-bottomed 96-well microtiter plates (1 cell/well for T cell clones and 100 to 500 cells/well for T cell lines) by using a FACSAria (BD Biosciences). The sorted cells were stimulated with the corresponding epitope peptide and cultured as previously described ([51]). After 2 to 3 weeks in culture, epitope-specific CD8^+ T cells were used in functional assays after their purity had been confirmed by flow cytometry analysis using tetramers.
(§2) 721.221 cells prepulsed with HIV-1 epitope peptide or 721.221 cells infected with HIV-1 were cocultured with T cell clones or lines in a 96-well plate for 2 h at 37°C. Brefeldin A (10 μg/ml) was then added, and the cells were incubated further for 4 h at 37°C. The cells were then fixed with 4% paraformaldehyde and incubated in permeabilization buffer (0.1% saponin–10% fetal bovine serum [FBS]–phosphate-buffered saline [PBS]), after which they were stained with APC-conjugated anti-CD8 MAb (Dako, Denmark) followed by FITC-conjugated anti-IFN-γ MAb (BD Biosciences). The percentage of IFN-γ-producing cells among the CD8^+ T cell population was determined by use of the FACSCanto II.

[3] = tested on: RI8-6T-specific T cell clone 2F (KI-855); test: ICS assay, 721.221-B*52:01 cells prepulsed with peptide, clone 2F from KI-855; settings: RI8-6T-specific T cell clone 2F from KI-855; 2 h, then brefeldin A 4 h at 37°C; IFN-γ; means with SD (n = 3)
Description: as §1, §2

[4] = tested on: cross-reactive T cell clone 8F (KI-855); test: ICS assay, 721.221-B*52:01 cells prepulsed with peptide, clone 8F from KI-855; settings: cross-reactive clone 8F from KI-855; 2 h, then brefeldin A 4 h at 37°C; IFN-γ; means with SD (n = 3)
Description: as §1, §2

RMYSPTSI [RI8-6T]
number of individuals with epitope-specific T cells detected ([1]; 12 HLA-B*52:01+ individuals infected with Gag280V virus, IFN-γ ELISPOT): 4 individuals | T cell response to peptide in individual KI-809 ([1]; PBMCs from wild-type virus-infected KI-809, ELISPOT): strong T cell response | recognition of 721.221-B*52:01 cells prepulsed with peptide [2]: recognized | recognition of 721.221-B*52:01 cells prepulsed with peptide [3]: effectively recognized | recognition of 721.221-B*52:01 cells prepulsed with peptide [4]: effectively recognized
